Assay [1] has as its target T1, human GPR120 (Homo sapiens, UniProt Q5NUL3).
T1 construct: host or cells: CHO-K1
The experiment in a line: GPR120 β-Arrestin Recruitment Assay (PathHunter, CHO-K1 cells). It counts as cell-based. Particulars: pEC50=−log(EC50) from curve fit; CHO-K1 cells, 90 min incubation; read-out: β-Arr pEC50 (converted). The source says:
This in vitro assay tests compounds' ability to activate intracellular signaling via 3-Arrestin recruitment to heterologously expressed human GPR120. This functional cellular assay utilizes enzyme fragment complementation with β-galactosidlase (β-gal) as a functional reporter (DiscoveRx PathlHunter® β-Arrestin assay platform). The human (GPR120 receptor (GenBank accession Number NM_181745) was fused in frame with the small enzyme fragment ProLink™ and co-expressed in CHO-K1 cells with a fusion protein of β-Arrestin 2 and the larger, N-terminal deletion mutant of β-gal. Activation by a GPR120 agonist stimulates binding of β-arrestin to the ProLink-tagged GPCR and forces complementation of the two enzyme fragments, resulting in the formation of an active β-gal enzyme. This interaction leads to an increase in enzyme activity that can be measured using chemiluminescent PathHunter® Detection Reagents.
One day prior to the assay, cells were seeded in a total volume of 20 μl of growth medium into white walled 384-well microplates and incubated at 37° C./5% CO2 overnight. On the day of the assay, growth medium was removed and 20 μl assay buffer (HBSS+10 mM HEPES+0.1% heat-inactivated BSA) were added to each well.
Test compounds were dissolved in 100% DMSO to a concentration of 10 mM to provide stock solutions. Serial dilutions were performed from stock solutions into assay buffer to obtain intermediate concentrations of 5-fold higher than the concentrations to be tested. 5 μl of the 5× compound solutions were added to the cells and the assay plates were incubated at 37° C. for 90 minutes. The final concentration of compounds tested in the assay ranged from 1.5 nM to 100 μM. Following incubation, 12.5 μl of PathHunter® detection reagent were added to each well, and plates were incubated at room temperature for 60 minutes. Chemiluminescence was read using an EnVision plate reader (PerkinElmer), raw data were expressed as relative light units (RLU).
(§1) To determine agonist potencies (EC50 values), non-linear least-squares curve fits of the raw data (RLU) were performed in the GraphPad Prism software package, using the 4-parameter model with variable Hill Slope:
Reported below in Table 1 are pEC50 values (pEC50=−log(EC50) from curve fit) for compounds of Formula I in this assay, β-Arr pEC50 Alternatively, percent activation at a single concentration is reported.
(In general: Recruitment of arrestin is a read-out of receptor activation apart from second messengers.)
T1 sequence (Q5NUL3 1-377 isoform Q5NUL3-1): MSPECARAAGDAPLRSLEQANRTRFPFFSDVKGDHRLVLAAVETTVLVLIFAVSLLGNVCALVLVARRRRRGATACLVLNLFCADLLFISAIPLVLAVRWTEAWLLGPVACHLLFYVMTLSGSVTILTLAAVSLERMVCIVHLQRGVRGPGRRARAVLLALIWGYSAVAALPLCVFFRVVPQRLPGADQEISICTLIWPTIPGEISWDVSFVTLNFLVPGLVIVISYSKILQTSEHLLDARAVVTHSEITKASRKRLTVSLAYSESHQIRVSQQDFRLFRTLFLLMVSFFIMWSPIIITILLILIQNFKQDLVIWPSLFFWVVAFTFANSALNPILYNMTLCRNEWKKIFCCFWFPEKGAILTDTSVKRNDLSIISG
T1 sequence (P32121 whole entry partner): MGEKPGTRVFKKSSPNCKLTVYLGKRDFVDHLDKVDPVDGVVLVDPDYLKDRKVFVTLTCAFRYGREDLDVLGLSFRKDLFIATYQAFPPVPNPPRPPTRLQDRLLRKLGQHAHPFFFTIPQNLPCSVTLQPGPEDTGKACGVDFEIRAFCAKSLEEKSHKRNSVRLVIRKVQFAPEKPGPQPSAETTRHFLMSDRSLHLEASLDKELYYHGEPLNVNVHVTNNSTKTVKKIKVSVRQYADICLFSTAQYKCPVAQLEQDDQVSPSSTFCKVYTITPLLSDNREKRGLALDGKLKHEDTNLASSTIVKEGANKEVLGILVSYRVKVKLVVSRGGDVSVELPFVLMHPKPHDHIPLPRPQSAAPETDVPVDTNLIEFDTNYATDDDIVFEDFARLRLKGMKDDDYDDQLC

Assay [2] concerns the target T2, human GPR120 (Homo sapiens, UniProt Q5NUL3).
T2 construct: expressed in transfected cells; host or cells: CHO-K1 coexpressing Gα16 and mitochondrial apoaequorin
T2 sequence (Q5NUL3 1-361): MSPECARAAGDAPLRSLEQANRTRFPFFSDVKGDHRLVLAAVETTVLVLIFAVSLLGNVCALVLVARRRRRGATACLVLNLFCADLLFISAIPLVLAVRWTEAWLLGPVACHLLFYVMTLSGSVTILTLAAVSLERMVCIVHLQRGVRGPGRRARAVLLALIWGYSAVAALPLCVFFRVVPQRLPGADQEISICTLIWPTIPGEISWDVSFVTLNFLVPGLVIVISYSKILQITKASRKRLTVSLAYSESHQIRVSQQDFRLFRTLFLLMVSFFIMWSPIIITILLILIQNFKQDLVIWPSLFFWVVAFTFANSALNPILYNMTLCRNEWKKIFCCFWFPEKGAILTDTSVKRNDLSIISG
The experiment in a line: Human GPR120 Calcium-Release Assay (aequorin luminescence, CHO-K1 cells). It counts as cell-based. Particulars: pEC50=−log(EC50) from curve fit; short variant of human GPR120 in CHO-K1 with Gα16 and apoaequorin; read-out: Ca2+ pEC50 (converted).
Source text: This in vitro assay tests compounds' ability to activate heterologously expressed human GPR120 via G-protein coupling leading to generation of inositol 1,4,5-triphosphate and mobilization of intracellular calcium. This functional cellular assay is based on the luminescence of mitochondrial aequorin following intracellular Ca^2+ release. Aequorin is a photoprotein isolated from the jellyfish Aequorea victoria. The active protein is formed in the presence of molecular oxygen from apoaequorin and its cofactor coelenterazine. Binding of Ca^2+ to the active protein induces a conformational change, resulting in oxidation of coelenterazine and subsequent blue luminescence.
The short variant of the human GPR120 receptor (GenBank accession Number AAI01176) was stably expressed in a CHO-K1 cell line coexpressing Gα16 and mitochondrial apoaequorin.
Cells were grown to mid-log phase in culture media without antibiotics, were detached with PBS/EDTA, centrifuged and resuspended in assay buffer (DMEM-F12 medium with 15 mM HEPES pH 7.0 and 0.1% protease free BSA) at a concentration of 10^6 cells/mL. Cells were incubated at room temperature for at least 4 hours with 5 μM coelenterazine h.
Test compounds were dissolved in 100% DMSO to a concentration of 20 mM to provide stock solutions. Serial dilutions were performed from stock solutions in 100% DMSO to obtain intermediate concentrations 200-fold higher than the concentrations to be tested. Each sample was diluted 100-fold into assay buffer. 50 μl of these compound solutions were dispensed into each well of 96-well assay plates. The final concentration of compounds tested in the assay ranged from 5 nM to 100 μM. α-Linolenic acid was used as a reference compound. Each test was performed in duplicate.
To start the assay, 50 μl of cell suspension were added to each well of the assay plate. The resulting luminescence was recorded using a Hamamatsu Functional Drug Screening System 6000 (FDSS 6000), and raw data were expressed as relative light units (RLU).
as §1
Reported below in Table 1 are pEC50 values (pEC50=−log(EC50) from curve fit) for representative compounds of Formula I in this assay, Ca2+pEC50.

As for `COc1cncc(Oc2nccc(N3Cc4ccccc4S3(=O)=O)n2)c1` [Compound 50], the EC50 was 5010 nM in assay [1] and 6310 nM in assay [2].

Take `Cc1cncc(Oc2nccc(N3Cc4ccccc4S3(=O)=O)n2)c1` [Compound 19]: the EC50 in assay [1] is 5010 nM; in assay [2], 794 nM.

As to `O=S1(=O)c2ccccc2CN1c1cc(C(F)(F)F)nc(Oc2ccc(Cl)cc2)n1` [Compound 97], the values for the EC50 in assay [1] and in assay [2] were 631 nM and 1000 nM, respectively.

For `O=S1(=O)c2ccccc2CN1c1ccnc(Oc2ccc(OCc3ccccc3)cc2)n1` [Compound 45], the EC50 is 1580 nM in assay [1] and above 100000 nM in assay [2].

On to `O=S1(=O)c2ccccc2CN1c1cccc(Oc2cccnc2)n1` [Compound 121], for which the EC50 in assay [1] is 1580 nM; in assay [2], 200 nM.

With `O=S1(=O)c2ccccc2CN1c1cc(C2CC2)nc(Oc2cccnc2)n1` [Compound 83], the EC50 was 2510 nM in assay [1] and 794 nM in assay [2].

Consider `O=S1(=O)c2ccccc2CN1c1ccnc(Oc2cccc(Cl)c2)n1` [Compound 22], for which the EC50 in assay [1] was 1580 nM; in assay [2], above 100000 nM.

On to `Cc1ccc(Oc2nccc(N3Cc4ccccc4S3(=O)=O)n2)cc1Cl` [Compound 34], for which the EC50 in assay [1] was 1580 nM; in assay [2] it was 200 nM.

`O=S1(=O)c2ccccc2CN1c1nccc(Oc2cccnc2)n1` [Compound 114]: the EC50 was 12600 nM in assay [1] and 15800 nM in assay [2].

For the compound `O=S1(=O)c2ccccc2CN1c1cncc(Oc2cccnc2)n1` [Compound 142], the EC50 was 39800 nM in assay [1] and 1260 nM in assay [2].

For the compound `O=S1(=O)c2ccccc2CN1c1ccnc(Oc2ccccc2Cl)n1` [Compound 20], the EC50 in assay [1] is 6310 nM; in assay [2] it was 3980 nM.

For the compound `Cc1cc(Oc2ccc(Cl)cc2)nc(N2Cc3ccccc3S2(=O)=O)n1` [Compound 87], the EC50 in assay [1] was 794 nM; in assay [2] it was 1580 nM.

In the case of `O=S1(=O)c2ccccc2CN1c1ccnc(OC2CCCC2)n1` [Compound 60], the results for the EC50 in assay [1] and in assay [2] were 1580 nM and 501 nM, respectively.

With `COc1cc(N2Cc3ccccc3S2(=O)=O)nc(Oc2ccc(F)cc2)n1` [Compound 99], the EC50 in assay [1] was 501 nM; in assay [2] it was 158 nM.

On to `O=S1(=O)c2ccccc2CN1c1ccnc(OC2CCC2)n1` [Compound 58], for which the EC50 is 2510 nM in assay [1] and 631 nM in assay [2].

`COc1cc(Oc2ccc(Cl)cc2)nc(N2Cc3ccccc3S2(=O)=O)n1` [Compound 96]: the EC50 in assay [1] was 1000 nM; in assay [2] it was above 10000 nM.

As to `Cc1cc(N2Cc3ccccc3S2(=O)=O)nc(Oc2ccc(Cl)cc2)n1` [Compound 86], the EC50 in assay [1] is 251 nM; in assay [2] it was 398 nM.

Regarding `O=S1(=O)c2ccccc2CN1c1ccnc(OC2CCCCC2)n1` [Compound 59], the values for the EC50 in assay [1] and in assay [2] were 6310 nM and 12600 nM, respectively.

Turning to `O=S1(=O)c2ccccc2CN1c1cc(C(F)(F)F)nc(Oc2ccccc2)n1` [Compound 98], the EC50 was 794 nM in assay [1] and 2510 nM in assay [2].

In the case of `Cc1cc(Oc2ccc(Cl)cc2)nc(N2Cc3ccccc3S2(=O)=O)c1` [Compound 131], the EC50 in assay [1] was 158 nM; in assay [2] it was 316 nM.

Take `CN1CCC(Oc2nccc(N3Cc4ccccc4S3(=O)=O)n2)C1` (stereo not shown) [Compound 63]: the figures for the EC50 in assay [1] and in assay [2] were 501 nM and above 100000 nM, respectively.

As for `CCc1cc(N2Cc3ccccc3S2(=O)=O)nc(Oc2cccnc2)n1` [Compound 82], the EC50 in assay [1] was 2510 nM; in assay [2], 1260 nM.

For the compound `COc1cc(N2Cc3ccccc3S2(=O)=O)nc(Oc2cccnc2)n1` [Compound 79], the figures for the EC50 in assay [1] and in assay [2] were 1580 nM and 501 nM, respectively.

For `O=S1(=O)c2ccccc2CN1c1ccnc(Oc2cccc(F)c2)n1` [Compound 37], the figures for the EC50 in assay [1] and in assay [2] were 1000 nM and 200 nM, respectively.

For `O=S1(=O)c2ccccc2CN1c1ccnc(Oc2ccc(F)cc2)n1` [Compound 42], the EC50 in assay [1] is 1000 nM; in assay [2], 316 nM.

`CNC(=O)c1cc(N2Cc3ccccc3S2(=O)=O)nc(Oc2ccc(Cl)cc2)n1` [Compound 89]: the EC50 in assay [1] is 2510 nM; in assay [2] it was 20000 nM.

Source of the values: patent US12116362B2, “Monocyclic compounds useful as GPR120 modulators” (Valo Health, Inc., priority 2016, dated 2024).
